Data reported in US20080020014A1, “Implantable devices containing nuclear receptor ligands for the treatment of vascular and related disorders” (priority 2006, published 2008).

How the values were obtained:
[1] = test system: PPARs; details: cited from earlier work
[2] = test system: rat carotid arteries; details: balloon-denuded rat carotid arteries; cited from earlier work
[3] = Drug-release rate of Example 3 stents in phosphate-buffered saline with 1 mass % sodium dodecyl sulfate, pH 7.4, 37° C., HPLC; assay type: physicochemical
Protocol: A drug-polymer layer comprising 17-β estradiol was applied onto a stent in the following manner. A first composition was prepared by mixing the following components: • (a) about 2.0 mass % of EVAL; and • (b) the balance, a mixture of solvents, DMAC and ethanol, in a ratio of DMAC to ethanol of about 70:30 by mass.
The first composition was applied onto the surface of a bare 13 mm TETRA stent (available from Abbott Vascular Corp.) by spraying and dried to form a primer layer. A spray coater having an EFD 7803 spray valve with 0.014 inch fan nozzle with a VALVEMATE 7040 control system (manufactured by EFD Inc. of East Providence, R.I) was used. The fan nozzel was maintained at about 60° C. with a feed pressure of about 0.2 atm (about 3 psi) and an atomization pressure of about 1.35 atm (about 20 psi). An average of about 19 micrograms (μg) per coating pass was applied and an average total of about 62 μg of the wet coating was applied.
The primer layer was baked at about 140° C. for about one hour, yielding a layer with an average total amount of solids of about 61 μg, corresponding to an average thickness on the stent of 0.65 μm. “Solids” means the amount of dry residue deposited on the stent after all volatile organic compounds (e.g., the solvent) have been removed.
A second composition was prepared by mixing the following components: • (a) about 2.0 mass % of EVAL; • (b) about 0.7 mass % 17-β estradiol; and • (c) the balance, a mixture of solvents, DMAC and ethanol, in a ratio of DMAC to ethanol of about 70:30 by mass.
The second composition was applied onto the dried primer layer to form a drug-polymer polymer layer using the same spraying technique and equipment used for the primer layer. […] of the wet coating was applied, followed by drying at about 50° C. for about 2 hours. The total amount of solids of the drug-polymer layer was about 494 μg, corresponding to an average thickness on the stent of about 5.3 μm.
A third, topcoat composition was prepared by mixing the following components: • (a) about 1.2 g of a 10 mass % solution of KYNAR-FLEX 2800 in acetone; • (b) about 1.89 g of additional acetone; • (c) about 5.94 g of cyclohexanone; and • (d) about 2.97 g of AMS FLUX REMOVER.
The topcoat composition was applied by spraying using an EFD 7803 spray valve with 0.014 inch fan nozzle to form a topcoat layer, followed by drying. The nozzle temperature was at ambient temperature with a feed pressure of about 0.2 atm (3 psi) and an atomization pressure of about 1 atm (15 psi). The dryer temperature was at ambient temperature with a dryer air pressure of about 2.7 atm (40 psi). An average of about 5 μg per coating pass was applied and an average total of about 60 μg of wet coating was applied. The topcoat layer was baked at about 50° C. for two hours, yielding a total amount of solids of about 55 μg, corresponding to a thickness of about 0.38 μm.
Three stents coated according to this example were tested for their drug-release rate. The stents were immersed in individual, stirred vessels containing a phosphate-buffered saline solution that included about 1 mass % of sodium dodecyl sulfate. […] The amount of 17-β estradiol released was determined at measured intervals of time by HPLC. […] There was an initial small burst of 17-β estradiol during the first 20 hours, after which the release rate became approximately linear. Specifically, about 18% of 17-β estradiol was released after 10 hr, 25% after 20 hr, 30% after 30 hr, 35% after 40 hr, 40% after 50 hr, 43% after 60 hr, and 45% after 70 hr.

[4] = test system: atherosclerosis; details: through liver X receptors (LXR); cited from earlier work
[5] = test system: collagenase gene expression at AP-1 binding sites; details: cited from earlier work
[6] = test system: vascular smooth muscle cell; details: cited from earlier work
[7] = test system: rat carotid arteries; details: after balloon injury to rat carotid arteries; cited from earlier work
[8] = test system: rabbit femoral arteries; details: 28 days after angioplasty; cited from earlier work
[9] = in blood; may not happen in tissue; listed as Tazarotene; cited from earlier work
[10] = test system: retinoic acid receptors (RARs); details: cited from earlier work

Compound | PPAR subtypes activated [1] | further results
9-(R/S) hydroxyoctadecadienoic acid [9-(R/S) HODE] | γ | 
CCCCC[C@H](O)/C=C/C=C\CCCCCCCC(=O)O (racemic) [13-(R/S) HODE] | γ | 
CCCCCCCCCCCCCCC(Br)C(=O)O (stereo not shown) [2-bromopalmitate] | α, δ | 
CCCCC/C=C\C/C=C\C=C\[C@H](O)C/C=C\CCCC(=O)O [8-(R) HETE, 8-(R)-hydroxyeicosatetaenoic acid] | α, γ | 
CCCCC/C=C\C/C=C\C=C\[C@@H](O)C/C=C\CCCC(=O)O [8-(S) HETE] | α, γ | 
CCC=CCC=CCC=CC=CC(O)CC=CCCCC(=O)O (stereo not shown) [8-HEPE, 8-hydroxyeicosapentaenoic acid] | α | 
CCCCCC=CC=CC(=O)CCCCCCCC(=O)O [9-oxo ODE, 9-oxo octadecadienoic acid] | γ | 
CCCCC/C=C\C[C@H](O)/C=C/C=C\C/C=C\CCCC(=O)O [12-HETE] | α | 
CCCCC[C@@H](/C=C/C=C\CCCCCCCC(=O)O)OO [13-(S) HpODE, 13-(S) hydroperoxyoctadecadienoic acid] | γ | 
CC1=C(/C=C/C(C)=C/C=C/C(C)=C\C(=O)O)C(C)(C)CCC1 [13-cis retinoic acid] |  | intimal thickening [2]: suppressed; vessel remodeling [2]: increased
CCCCCC(=O)/C=C/C=C\CCCCCCCC(=O)O [13-oxo ODE] | γ | 
CCCCC[C@H](O)/C=C/C=C\C/C=C\C/C=C\CCCC(=O)O [15-HETE] | γ | 
CCCCC/C=C/C=C1/C(=O)C=C[C@@H]1C/C=C\CCCC(=O)O [15d-PGJ2, 15-deoxy-Δ^12,14-PGJ2] | α, δ, γ | 
C[C@]12CC[C@@H]3c4ccc(O)cc4CC[C@H]3[C@@H]1CC[C@@H]2O [17-β estradiol] |  | 17-β estradiol released ([3]; after 10 hr, EVAL drug-polymer layer, KYNAR-FLEX 2800 topcoat): about 18%; 17-β estradiol released ([3]; after 20 hr): ~25%; 17-β estradiol released ([3]; after 30 hr): ~30%; 17-β estradiol released ([3]; after 40 hr): ~35%; 17-β estradiol released ([3]; after 50 hr): ~40%; 17-β estradiol released ([3]; after 60 hr): ~43%; 17-β estradiol released ([3]; after 70 hr): ~45%
CCCCCC#CCC#CCC#CCC#CCCCC(=O)O [ETYA, eicosatetraynoic acid] | α | 
CC(C)(Sc1ccc(CCN(CCCCC2CCCCC2)C(=O)NC2CCCCC2)cc1)C(=O)O [GW-7647] | α | atherosclerosis and formation of microphage-forming cells [4]: inhibited

Compound | PPAR subtypes activated [1] | further results
CCCCC/C=C\C[C@@H](O)/C=C/C=C/C=C\[C@@H](O)CCCC(=O)O [LTB4] | α | 
CCCCC[C@H](O)/C=C/C1=C(C/C=C\CCCC(=O)O)C(=O)CC1 [PGB2] | α, δ, γ | 
CCCCC[C@H](O)/C=C/[C@H]1C(=O)C=C[C@@H]1C/C=C\CCCC(=O)O [PGJ2, prostaglandin J2] | α, δ, γ | 
CCC/C=C/C/C=C/C=C/C=N/NN=O [Triacsin C] | α | 
Cc1cccc(Nc2cc(Cl)nc(SCC(=O)O)n2)c1C [WY-14643] | α, δ, γ | 
CC1=C(/C=C/C(C)=C/C=C/C(C)=C/C(=O)O)C(C)(C)CCC1 [all-trans retinoic acid] |  | collagenase gene expression at AP-1 binding sites [5]: inhibited; vascular smooth muscle cell proliferation [6]: inhibited; intimal thickening [2]: suppressed; vessel remodeling [2]: increased; favorable geometric remodeling [7]: promoted; neointimal formation [7]: reduced
CCCCC/C=C\C/C=C\C/C=C\C/C=C\CCCC(=O)O [arachidonic acid] | α, δ, γ | 
CC/C=C\C/C=C\C/C=C\C/C=C\C/C=C\C/C=C\CCC(=O)O [docahexanoic acid] | α, δ, γ | 
CCCCC/C=C\C/C=C\CCCCCCCC(=O)O [linoleic acid] | α, δ | 
CCCCCCCCCSCC(=O)O [nonythioacetic acid] | α | 
CCCCC[C@H](O)/C=C/[C@@H]1[C@H]2C/C(=C/CCCC(=O)O)O[C@H]2C[C@H]1O [prostacyclin (PGI2), prostacyclin] | α, δ, γ | 
CC1=C(/C=C/C(C)=C/C=C/C(C)=C/CO)C(C)(C)CCC1 [retinol] |  | internal and external elastic lamina [8]: larger
CCOC(=O)c1ccc(C#Cc2ccc3c(c2)C(C)(C)CCS3)nc1 [tazarotene] |  | Pharmacokinetics: de-esterification / metabolism to tazarotenic acid [9]: rapidly metabolized to tazarotenic acid; Receptor specificity [10]: specific for retinoic acid receptors (RARs)
CCCCCCCCCCCCCCC1(C(=O)O)CO1 (stereo not shown) [tetradecylglycidic acid] | α, δ | 
CCCCCCCCCCCCCCSCC(=O)O [tetradecythioacetate] | α | 
clofibrates | α, δ, γ | 
